# Measured values from patent US20140309229A1, “METHODS FOR SELECTING AND TREATING CANCER IN PATIENTS WITH IGF-1R/IR INHIBITORS” (priority 2011, published 2014).
# Legend:
# Test in all cases: MTS proliferation assay
# Assay type in all cases: cell-based, human
# T84 = tested on: T84
# Method: (§1) Cell lines and in vitro cytotoxicity assay. Cells were maintained at 37° C. under standard cell culture conditions. Cells were plated at an optimized density for each cell line per well in 96-well microtiter FALCON® plates, incubated overnight, and then exposed to a serial dilution of drug. […] The results were expressed as an IC50, which is the drug concentration required to inhibit cell proliferation to 50% of that of untreated control cells. The mean IC50 and standard deviation (SD) from multiple tests for each cell line were calculated.
# (§2) In vitro Cellular Proliferation Assays.
# HCC2998 = tested on: HCC2998
# Method: as §1, §2
# COLO-201 = tested on: COLO-201
# Method: as §1, §2
# SNU-C1 = tested on: SNU-C1
# Method: as §1, §2
compound,measurement,setting,value
"C[C@@]1(C(=O)Nc2ccc(F)nc2)CCCN1c1nc(Nc2cc(C3CC3)n[nH]2)c2cccn2n1 [BMS-754807, (2S)-1-(4-((5-cyclopropyl-1H-pyrazol-3-yl)amino)pyrrolo[2,1-f][1,2,4]triazin-2-yl)-N-(6-fluoro-3-pyridinyl)-2-methyl-2-pyrrolidinecarboxamide]",IC50,"T84; Homo sapiens, T84, 72 h",5.2 µM
same,Sensitivity Classes,T84; T84,R (“R” refers Resistant)
same,Sensitivity to BMS-754807,"T84; T84, preliminary panel of 45 CRC cell lines",Resistant (resistant cell lines had IC50 values of >50 nmol/L)
same,Sensitivity Classes,HCC2998; HCC2998,R (“R” refers Resistant)
same,IC50,"HCC2998; Homo sapiens, HCC 2998, 72 h",380 nM
same,Sensitivity to BMS-754807,"COLO-201; COLO201, preliminary panel of 45 CRC cell lines",Resistant (resistant cell lines had IC50 values of >50 nmol/L)
same,Sensitivity Classes,COLO-201; COLO-201,R (“R” refers Resistant)
same,IC50,"COLO-201; Homo sapiens, COLO 201, 72 h",2760 nM
same,IC50,"SNU-C1; Homo sapiens, SNU-C1, 72 h",13 nM
same,Sensitivity Classes,SNU-C1; SNU-C1,S (“S” refers Sensitive)
same,Sensitivity to BMS-754807,"SNU-C1; SNUC1, preliminary panel of 45 CRC cell lines",Sensitive (a sensitive cell line was classified as one with an IC50 of ≦50 nmol/L)
